In publication PMC9455983 (International Journal of Molecular Sciences, 2022):
Where two headings read alike, the source gives them in different places.

What was measured:
mu-opioid receptor (MOR) = target: T1, mu-opioid receptor (MOR) (Rattus norvegicus, UniProt P33535); assay: MOR radioligand competition binding assay ([3H]-DAMGO); conditions: Mu screening results
T1 construct: Rat cortices were homogenized using 50 mM Tris, pH 7.4, and centrifuged at 16,500 rpm for 10 min; from tissue; host or cells: rat cortex membranes
Procedure: MOR binding assay: Rat cortices were homogenized using 50 mM Tris, pH 7.4, and centrifuged at 16,500 rpm for 10 min. The pellets were resuspended in fresh buffer and incubated at 37 °C for 30 min. Following incubation, the suspensions were centrifuged as before, the resulting pellets were resuspended in 100 volumes of 50 mM Tris, pH 7.4 plus 2 mg/mL bovine serum and the suspensions combined. Each assay tube contained 0.5 mL of membrane suspension, 2 nM [^3H]-DAMGO, and 0.02 mg/mL mixture in a total volume of 0.65 mL [13, 45, 53, 55].
(§1) All three binding assays were terminated by filtration through GF/B filters, soaked in 5 mg/mL bovine serum albumin, 50 mM Tris, pH 7.4, on a Tomtec Mach II Harvester 96. The filters were subsequently washed with 6 mL of assay buffer. Bound radioactivity was counted on a Wallac Betaplate Liquid Scintillation Counter. Experiments were conducted using two replicates and repeated twice. Values in Scheme 2 represent the mean ± SD of two experiments with two replicates in each test.

[1] = target: T2, kappa-opioid receptor (KOR) (Cavia porcellus, UniProt P41144); assay: KOR radioligand competition binding assay ([3H]U69,593); design: species or system guinea pig; conditions: Kappa screening results
T2 construct: Guinea pig cortices and cerebella were homogenized using 50 mM Tris, pH 7.4; from tissue; host or cells: guinea pig cortex and cerebellum membranes
Procedure: KOR binding assay: Guinea pig cortices and cerebella were homogenized using 50 mM Tris, pH 7.4, 10 mM MgCl2-6H2O, […] centrifuged and incubated as above. Each assay tube contained 2 nM [^3H]U69,593. Assay tubes were incubated for 2 h at 25 °C. Unlabeled U50,488 was used as a competitor to generate a standard curve and determine nonspecific binding.
as §1

[2] = target: T3, delta-opioid receptor (DOR) (Rattus norvegicus, UniProt P33533); assay: DOR radioligand competition binding assay ([3H]-DPDPE); conditions: Delta screening results
T3 construct: Rat cortices were homogenized using 50 mM Tris, pH 7.4, 10 mM MgCl2-6H2O, 200 µM PMSF; from tissue; host or cells: rat cortex membranes
Procedure: DOR binding assay: Rat cortices were homogenized using 50 mM Tris, pH 7.4, 10 mM MgCl2-6H2O, 200 µM PMSF, centrifuged and incubated as above. Each assay tube contained 2 nM [^3H]-DPDPE. Assay tubes were incubated for 2.5 h at 25 °C. Unlabeled DPDPE was used as a competitor to generate a standard curve and determine nonspecific binding.
as §1

[3] = experiment 1, unit inferred, read-out: Ki (Exp 1)
[4] = experiment 2, unit inferred, read-out: Ki (Exp 2)
[5] = mean of Exp 1 and Exp 2, unit inferred, read-out: MEAN (Ki)
[6] = mean of two experiments, read-out: Ki
[7] = first Ki column, unit not printed (apparently M), read-out: Ki (first column)
[8] = mean of both Ki, unit inferred, read-out: MEAN (Ki)
[9] = second Ki column, unit not printed (apparently M), read-out: Ki (second column)

Structure (SMILES): CC(C)C[C@@H](CN1C(=N)NC[C@@H]1C)N1C[C@H](Cc2ccccc2)NC1=N [1968-41]
- Ki (mu-opioid receptor (MOR); [3]): 5620 nM
- Ki (mu-opioid receptor (MOR); [4]): 7390 nM
- Ki (mu-opioid receptor (MOR); [5]): 6510 nM
- Ki (mu-opioid receptor (MOR); [6]): 6510 nM
- Ki [1, 3]: 23900 nM
- Ki [1, 4]: 22000 nM
- Ki [1, 5]: 23000 nM
- Ki [1, 6]: 23000 nM
- Ki [2, 7]: 7310 nM

Structure (SMILES): C[C@H]1CNC(=N)N1C[C@H](Cc1ccc(O)cc1)N1C[C@H](Cc2ccccc2)NC1=N [1968-37]
- Ki (mu-opioid receptor (MOR); [3]): 749 nM
- Ki (mu-opioid receptor (MOR); [4]): 588 nM
- Ki (mu-opioid receptor (MOR); [5]): 669 nM
- Ki (mu-opioid receptor (MOR); [6]): 669 nM
- Ki [1, 3]: 3450 nM
- Ki [1, 4]: 3880 nM
- Ki [1, 5]: 3660 nM
- Ki [1, 6]: 3660 nM
- Ki [2, 7]: 3430 nM
- Ki [2, 8]: 3610 nM
- Ki [2, 6]: 3610 nM
- Ki [2, 9]: 3800 nM

Structure (SMILES): N=C1NC[C@H](Cc2ccccc2)N1C[C@H](Cc1ccccc1)N1C[C@H](Cc2ccc(O)cc2)NC1=N [1968-2]
- Ki (mu-opioid receptor (MOR); [3]): 135 nM
- Ki (mu-opioid receptor (MOR); [4]): 142 nM
- Ki (mu-opioid receptor (MOR); [5]): 139 nM
- Ki (mu-opioid receptor (MOR); [6]): 139 nM
- Ki [1, 3]: 5360 nM
- Ki [1, 4]: 5570 nM
- Ki [1, 5]: 5460 nM
- Ki [1, 6]: 5460 nM
- Ki [2, 7]: 6920 nM
- Ki [2, 8]: 8100 nM
- Ki [2, 6]: 8100 nM
- Ki [2, 9]: 9280 nM

Structure (SMILES): N=C1NC[C@H](Cc2ccccc2)N1C[C@H](Cc1ccc(O)cc1)N1C[C@H](Cc2ccc(O)cc2)NC1=N [1968-6]
- Ki (mu-opioid receptor (MOR); [3]): 84.5 nM
- Ki (mu-opioid receptor (MOR); [4]): 67.2 nM
- Ki (mu-opioid receptor (MOR); [5]): 75.8 nM
- Ki (mu-opioid receptor (MOR); [6]): 76 nM
- Ki [1, 3]: 5350 nM
- Ki [1, 4]: 3430 nM
- Ki [1, 5]: 4390 nM
- Ki [1, 6]: 4390 nM
- Ki [2, 7]: 4880 nM
- Ki [2, 8]: 4980 nM
- Ki [2, 6]: 4980 nM
- Ki [2, 9]: 5090 nM

Structure (SMILES): CC(C)C[C@H]1CN([C@@H](Cc2ccc(O)cc2)CN2C(=N)NC[C@@H]2Cc2ccccc2)C(=N)N1 [1968-66]
- Ki (mu-opioid receptor (MOR); [3]): 2040 nM
- Ki (mu-opioid receptor (MOR); [4]): 1990 nM
- Ki (mu-opioid receptor (MOR); [5]): 2020 nM
- Ki (mu-opioid receptor (MOR); [6]): 2020 nM
- Ki [1, 3]: 2660 nM
- Ki [1, 4]: 3320 nM
- Ki [1, 5]: 2990 nM
- Ki [1, 6]: 2990 nM
- Ki [2, 7]: 18200 nM

Structure (SMILES): Cc1cc(O)cc(C)c1C[C@H]1CNC(=N)N1C[C@H](Cc1ccccc1)N1C[C@H](Cc2ccccc2)NC1=N [1968-49]
- Ki (mu-opioid receptor (MOR); [3]): 53.4 nM
- Ki (mu-opioid receptor (MOR); [4]): 84.7 nM
- Ki (mu-opioid receptor (MOR); [5]): 69.1 nM
- Ki (mu-opioid receptor (MOR); [6]): 69 nM
- Ki [1, 3]: 1230 nM
- Ki [1, 4]: 1210 nM
- Ki [1, 5]: 1220 nM
- Ki [1, 6]: 1220 nM
- Ki [2, 7]: 615 nM
- Ki [2, 8]: 543 nM
- Ki [2, 6]: 543 nM
- Ki [2, 9]: 472 nM

Structure (SMILES): Cc1cc(O)cc(C)c1C[C@@H](CN1C(=N)NC[C@@H]1Cc1ccc(O)cc1)N1C[C@H](Cc2ccccc2)NC1=N [1968-29]
- Ki (mu-opioid receptor (MOR); [3]): 117 nM
- Ki (mu-opioid receptor (MOR); [4]): 114 nM
- Ki (mu-opioid receptor (MOR); [5]): 116 nM
- Ki (mu-opioid receptor (MOR); [6]): 116 nM
- Ki [1, 3]: 1450 nM
- Ki [1, 4]: 1450 nM
- Ki [1, 5]: 1450 nM
- Ki [1, 6]: 1450 nM
- Ki [2, 7]: 967 nM
- Ki [2, 8]: 836 nM
- Ki [2, 6]: 836 nM
- Ki [2, 9]: 705 nM

Structure (SMILES): Cc1cc(O)cc(C)c1C[C@H]1CN([C@@H](CC(C)C)CN2C(=N)NC[C@@H]2Cc2c(C)cc(O)cc2C)C(=N)N1 [1968-60]
- Ki (mu-opioid receptor (MOR); [3]): 66.4 nM
- Ki (mu-opioid receptor (MOR); [4]): 71.2 nM
- Ki (mu-opioid receptor (MOR); [5]): 68.8 nM
- Ki (mu-opioid receptor (MOR); [6]): 69 nM
- Ki [1, 3]: 308 nM
- Ki [1, 4]: 422 nM
- Ki [1, 5]: 365 nM
- Ki [1, 6]: 365 nM
- Ki [2, 7]: 978 nM
- Ki [2, 8]: 814 nM
- Ki [2, 6]: 814 nM
- Ki [2, 9]: 651 nM

Structure (SMILES): CC(C)C[C@H]1CN([C@@H](Cc2ccccc2)CN2C(=N)NC[C@@H]2C)C(=N)N1 [1968-35]
- Ki (mu-opioid receptor (MOR); [3]): 4450 nM
- Ki (mu-opioid receptor (MOR); [4]): 4580 nM
- Ki (mu-opioid receptor (MOR); [5]): 4510 nM
- Ki (mu-opioid receptor (MOR); [6]): 4510 nM
- Ki [1, 3]: 34100 nM
- Ki [1, 4]: 52600 nM
- Ki [1, 5]: 43300 nM
- Ki [1, 6]: 43300 nM

Structure (SMILES): CC(C)C[C@H]1CN([C@@H](CC(C)C)CN2C(=N)NC[C@@H]2Cc2ccc(O)cc2)C(=N)N1 [1968-27]
- Ki (mu-opioid receptor (MOR); [3]): 960 nM
- Ki (mu-opioid receptor (MOR); [4]): 1000 nM
- Ki (mu-opioid receptor (MOR); [5]): 981 nM
- Ki (mu-opioid receptor (MOR); [6]): 981 nM
- Ki [1, 3]: 4240 nM
- Ki [1, 4]: 4840 nM
- Ki [1, 5]: 4540 nM
- Ki [1, 6]: 4540 nM
